For orientation: EC50 means the concentration at which the effect is half-maximal. Read a low EC50 as higher potency in that assay.

The target in the first experiment is α4β7 integrin (Homo sapiens (Human), UniProt P13612+P26010). Description: α4β7 Integrin Cell Capture Assay. Type of experiment: cell-based. To be noted: RPMI8866 cells captured on MadCAM-1 extracellular domain-coated plate.
α4β7 integrin, sequence (P13612 34-1032): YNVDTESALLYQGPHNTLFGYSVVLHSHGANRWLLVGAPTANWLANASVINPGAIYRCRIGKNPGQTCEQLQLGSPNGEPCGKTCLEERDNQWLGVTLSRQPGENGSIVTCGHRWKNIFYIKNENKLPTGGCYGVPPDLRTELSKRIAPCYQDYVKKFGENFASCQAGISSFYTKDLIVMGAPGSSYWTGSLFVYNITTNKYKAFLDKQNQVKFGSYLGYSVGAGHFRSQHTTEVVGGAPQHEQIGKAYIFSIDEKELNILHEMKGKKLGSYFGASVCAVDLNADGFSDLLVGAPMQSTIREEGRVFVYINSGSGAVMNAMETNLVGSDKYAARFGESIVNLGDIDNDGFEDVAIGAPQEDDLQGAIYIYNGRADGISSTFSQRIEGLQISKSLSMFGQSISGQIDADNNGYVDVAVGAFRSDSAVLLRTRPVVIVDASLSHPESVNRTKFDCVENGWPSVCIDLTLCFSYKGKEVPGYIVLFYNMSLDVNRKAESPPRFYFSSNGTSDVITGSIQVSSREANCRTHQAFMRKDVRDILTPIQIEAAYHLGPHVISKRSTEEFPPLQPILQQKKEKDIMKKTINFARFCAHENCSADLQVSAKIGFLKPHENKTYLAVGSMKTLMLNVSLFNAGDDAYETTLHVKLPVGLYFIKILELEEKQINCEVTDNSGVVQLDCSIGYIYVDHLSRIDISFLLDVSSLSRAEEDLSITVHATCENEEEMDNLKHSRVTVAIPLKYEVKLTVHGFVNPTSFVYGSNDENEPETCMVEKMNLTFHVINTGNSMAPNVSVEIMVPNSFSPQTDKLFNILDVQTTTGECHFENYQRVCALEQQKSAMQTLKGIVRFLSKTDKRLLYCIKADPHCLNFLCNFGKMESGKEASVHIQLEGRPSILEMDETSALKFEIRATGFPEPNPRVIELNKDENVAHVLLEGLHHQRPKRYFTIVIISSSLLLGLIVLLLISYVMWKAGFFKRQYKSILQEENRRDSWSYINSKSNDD
α4β7 integrin, sequence (P26010 20-798): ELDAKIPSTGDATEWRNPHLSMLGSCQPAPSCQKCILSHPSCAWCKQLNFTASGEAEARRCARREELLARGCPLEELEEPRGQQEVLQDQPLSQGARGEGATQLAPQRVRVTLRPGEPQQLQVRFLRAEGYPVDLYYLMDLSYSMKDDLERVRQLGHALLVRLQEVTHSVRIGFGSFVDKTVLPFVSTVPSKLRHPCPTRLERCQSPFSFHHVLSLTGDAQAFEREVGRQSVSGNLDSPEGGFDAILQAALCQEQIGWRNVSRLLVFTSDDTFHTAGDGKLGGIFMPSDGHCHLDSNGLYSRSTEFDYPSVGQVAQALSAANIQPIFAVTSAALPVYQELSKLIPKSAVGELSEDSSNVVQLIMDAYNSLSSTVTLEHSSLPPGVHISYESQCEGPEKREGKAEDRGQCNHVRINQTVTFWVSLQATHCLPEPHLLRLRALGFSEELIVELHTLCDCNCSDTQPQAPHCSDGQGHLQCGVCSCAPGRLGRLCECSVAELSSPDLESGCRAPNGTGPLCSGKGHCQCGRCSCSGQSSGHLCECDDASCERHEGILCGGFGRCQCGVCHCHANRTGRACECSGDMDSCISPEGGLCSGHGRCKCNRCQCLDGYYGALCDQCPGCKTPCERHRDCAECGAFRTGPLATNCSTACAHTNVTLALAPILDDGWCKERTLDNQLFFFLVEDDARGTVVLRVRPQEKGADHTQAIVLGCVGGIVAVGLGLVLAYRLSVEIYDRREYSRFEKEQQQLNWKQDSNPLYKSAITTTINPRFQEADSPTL
As to `Cc1cc(N2CCOC[C@@H]2C(F)(F)F)cc(F)c1C(=O)N[C@@H](Cc1ccc(-n2c(=O)c3ncccc3n(C)c2=O)c2ncccc12)C(=O)O` [Example 399, (S)-2-(2-fluoro-6-methyl-4-((R)-3-(trifluoromethyl)morpholino)benzamido)-3-(8-(1-methyl-2,4-dioxo-1,4-dihydropyrido[3,2-d]pyrimidin-3(2H)-yl)quinolin-5-yl)propanoic acid], the concentration giving a half-maximal response (EC50) was 0.1 nM.
On the same count and under the same terms, the value for `Cc1cc(N2CCOC[C@@H]2C(F)(F)F)cc(F)c1C(=O)N[C@@H](Cc1ccc(-n2c(=O)c3ccncc3n(C)c2=O)c2ncccc12)C(=O)O` (atropisomer, axis not shown) [Example 408, (S)-2-(2-fluoro-6-methyl-4-((R)-3-(trifluoromethyl)morpholino)benzamido)-3-(8-(1-methyl-2,4-dioxo-1,4-dihydropyrido[3,4-d]pyrimidin-3(2H)-yl)quinolin-5-yl)propanoic acid] was 0.049 nM.
The same measure, in the same setting: then `CC[C@@H](Nc1cc(F)c(C(=O)N[C@@H](Cc2ccc(-c3nc(C)c(C)n(C)c3=O)c3ncccc23)C(=O)O)c(F)c1F)C(F)(F)F` [Example 456], with 0.248 nM; and `CC[C@@]1(C)CN(c2cc(F)c(C(=O)N[C@@H](Cc3ccc(-c4c(C(F)(F)F)cc(C)n(C)c4=O)c4ncccc34)C(=O)O)c(F)c2)CCO1` [Example 445], with 0.984 nM.

Still in this experiment, the particulars now being: Table 1; capture of α4β7 expressing RPM18866 cells on MadCAM-1 extracellular domain-coated plate.
The compound `CC[C@@H](Nc1cc(F)c(C(=O)N[C@@H](Cc2ccc(-c3c(OC)cc(CN4CCOCC4)cc3OC)c3ncccc23)C(=O)O)c(F)c1)C(F)(F)F` [Example 121, (S)-2-(2,6-difluoro-4-(((R)-1,1,1-trifluorobutan-2-yl)amino)benzamido)-3-(8-(2,6-dimethoxy-4-(morpholinomethyl)phenyl)quinolin-5-yl)propanoic acid] displayed an EC50 of 1.7 nM.
Compound `CC[C@@H](Nc1cc(F)c(C(=O)N[C@@H](Cc2ccc(-c3c(C)n(C)c4ccc(F)cc4c3=O)c3ncccc23)C(=O)O)c(F)c1)C(F)(F)F` [Example 127, (S)-2-(2,6-difluoro-4-(((R)-1,1,1-trifluorobutan-2-yl)amino)benzamido)-3-(6-fluoro-1,2-dimethyl-4-oxo-1,4-dihydro-[3,8′-biquinolin]-5′-yl)propanoic acid] gave an EC50 of 9.3 nM.
On the same count and under the same terms, then `Cc1cc(C(F)(F)F)c(-c2ccc(C[C@H](NC(=O)c3c(F)cc(N4CCOC[C@@H]4CC(F)F)cc3F)C(=O)O)c3cccnc23)c(=O)n1C` [Example 130, (S)-2-(4-((S)-3-(2,2-difluoroethyl)morpholino)-2,6-difluorobenzamido)-3-(8-(1,6-dimethyl-2-oxo-4-(trifluoromethyl)-1,2-dihydropyridin-3-yl)quinolin-5-yl)propanoic acid], with 0.5 nM; and `N#Cc1ccc(-c2ccc(C[C@H](NC(=O)c3c(F)cc(C(=O)O)cc3F)C(=O)O)c3cccnc23)c(Cl)c1` [Example 25, (S)-4-((1-carboxy-2-(8-(2-chloro-4-cyanophenyl)quinolin-5-yl)ethyl)carbamoyl)-3,5-difluorobenzoic acid], with 3.3 nM.
Regarding `O=C(N[C@@H](Cc1ccc(-c2ccsc2)c2ncccc12)C(=O)O)c1c(F)cc(NS(=O)(=O)c2ccc(-c3ccnc(F)c3)cc2)cc1F` [Example 52, (S)-2-(2,6-difluoro-4-((4-(2-fluoropyridin-4-yl)phenyl)sulfonamido)benzamido)-3-(8-(thiophen-3-yl)quinolin-5-yl)propanoic acid], the EC50 is 91.5 nM.
As for `Cc1ccccc1-c1ccc(C[C@H](NC(=O)c2c(F)cc(NS(=O)(=O)c3ccc(-c4ccnc(F)c4)cc3)cc2F)C(=O)O)c2cccnc12` [Example 63, (S)-2-(2,6-difluoro-4-((4-(2-fluoropyridin-4-yl)phenyl)sulfonamido)benzamido)-3-(8-(o-tolyl)quinolin-5-yl)propanoic acid], the EC50 came out at 30.5 nM.

Still in this experiment, the particulars now being: Table 2; capture of α4β7 expressing RPM18866 cells on MadCAM-1 extracellular domain-coated plate.
Take `O=C(N[C@@H](Cc1ccc(-c2ccc3c4c(ccnc24)CCO3)c2ncccc12)C(=O)O)c1c(F)cccc1F` [Example 306]: the response was half-maximal at 11.2 nM (EC50).
`Cc1cc(C(F)(F)F)c(-c2ccc(C[C@H](NC(=O)c3c(F)cc(N4C[C@H](C)OC[C@@H]4C)cc3F)C(=O)O)c3cccnc23)c(=O)n1C` [Example 204] returned an EC50 of 1.7 nM.
Compound `CC[C@@H](Nc1cc(F)c(C(=O)N[C@@H](Cc2ccc(-c3c(C(F)(F)F)ccc4cccnc34)c3ncccc23)C(=O)O)c(F)c1)C(F)(F)F` [Example 290] returned a concentration giving a half-maximal response (EC50) of 6.5 nM.
Same read-out and setting: the value for `COc1c(-c2ccc(C[C@H](NC(=O)c3c(F)cc(N4CCOC[C@H]4C(F)(F)F)cc3F)C(=O)O)c3cccnc23)c(=O)n(C)c2ccccc12` [Example 205] was 1.7 nM.
On the same count and under the same terms, then `CC[C@@H](Nc1cc(F)c(C(=O)N[C@@H](Cc2ccc(-c3c(C)c(C(F)(F)F)cn(C)c3=O)c3ncccc23)C(=O)O)c(F)c1)C(F)(F)F` [Example 188], with 1.2 nM; and `Cc1cnc(-c2ccc(C[C@H](NC(=O)c3c(F)cc(N4CCOC[C@@H]4C(F)(F)F)cc3F)C(=O)O)c3cccnc23)c(C(F)(F)F)c1` [Example 260], with 3.8 nM; and `Cc1cc(C(F)(F)F)c(-c2ccc(C[C@H](NC(=O)c3c(F)cc(N4CC5CCC4CO5)cc3F)C(=O)O)c3cccnc23)c(=O)n1C` (stereo partly shown) [Example 257], with 3.5 nM.
`Cc1c(N(C)C)cn(C)c(=O)c1-c1ccc(C[C@H](NC(=O)c2c(F)cc(N3CCOC[C@@H]3C(F)(F)F)cc2F)C(=O)O)c2cccnc12` [Example 242] returned a concentration giving a half-maximal response (EC50) of 2.8 nM.
The compound `Cc1cc(C(F)(F)F)c(-c2ccc(C[C@H](NC(=O)c3c(F)cc(N4CCOC[C@@H]4C(F)(F)F)cc3F)C(=O)O)c3cc(F)cnc23)c(=O)n1C` [Example 159] yielded an EC50 of 0.3 nM.
The same measure, in the same setting: the value for `O=C(N[C@@H](Cc1ccc(-c2nccc(OC3CC3)c2C(F)(F)F)c2ncccc12)C(=O)O)c1c(F)cc(N2CCOC[C@@H]2C(F)(F)F)cc1F` [Example 233] was 2.2 nM.
The same measure, in the same setting: then `CC[C@@H](Nc1cc(F)c(C(=O)N[C@@H](Cc2ccc(-c3c(OC)ccn(C)c3=O)c3ncccc23)C(=O)O)c(F)c1)C(F)(F)F` [Example 186], with 1 nM; and `Cn1c(C2CC2)cc(C(F)(F)F)c(-c2ccc(C[C@H](NC(=O)c3c(F)cc(N4CCOC[C@@H]4C(F)(F)F)cc3F)C(=O)O)c3cccnc23)c1=O` [Example 158], with 0.3 nM; and `N#Cc1ccc(-c2ccc(C[C@H](NC(=O)c3c(F)cc(NC(c4ccccc4)C(F)F)cc3F)C(=O)O)c3cccnc23)c(Cl)c1` (stereo partly shown) [Example 326], with 19.1 nM.
`CC[C@@H](Nc1cc(F)c(C(=O)N[C@@H](Cc2ccc(-c3nc(C)c(C)nc3C)c3ncccc23)C(=O)O)c(F)c1)C(F)(F)F` [Example 295] yielded a concentration giving a half-maximal response (EC50) of 7.4 nM.
In turn, `COc1cnn(C)c(=O)c1-c1ccc(C[C@H](NC(=O)c2c(F)cc(N[C@H](C)C(F)(F)F)cc2F)C(=O)O)c2cccnc12` [Example 207] showed an EC50 of 1.7 nM.
For `N#Cc1ccc(-c2ccc(C[C@H](NC(=O)c3c(F)cc(NCC(F)(F)F)cc3F)C(=O)O)c3cccnc23)c(Cl)c1` [Example 332], the EC50 is 23.7 nM.
On the same count and under the same terms, then `CC(C)(O)[C@H](F)CNC(=O)c1cc(F)c(C(=O)N[C@@H](Cc2ccc(-c3ccc(C#N)cc3Cl)c3ncccc23)C(=O)O)c(F)c1` [Example 322], with 16.2 nM; and `CC[C@@H](Nc1cc(F)c(C(=O)N[C@@H](Cc2ccc(-c3nc(C)cc(OC)c3C(F)(F)F)c3ncccc23)C(=O)O)c(F)c1)C(F)(F)F` [Example 275], with 4.8 nM.

Source of the values: US11116760B2 (Gilead Sciences, Inc., priority 2018, dated 2021).
